Experiments:
Format in all cases: cell-based
[1] = system: Lactobacillus sp.; experiment: Bacterial contamination in a sugar-rich hydrolysate comprising 10% non-detoxified spruce hydrolysate, glucose by HPLC
Procedure: (§1) To test the theory, synthetic media was made containing about 90 g/l glucose, 0.5% sodium phosphate/phosphoric acid buffer (pH 5.5), 0.5 g/l diammonium phosphate, 2 g/l yeast extract and 2 g/l peptone. This solution (45 ml) was added to 50 ml serum bottles, along with a magnetic stirrer bar, and autoclaved, where after sodium sulfite at concentrations of 5, 10, 20 and 40 mM was added, while some bottles had no sulfite added, which served as control (0 mM). […] This culture was incubated at 37° C. for 36 hours and used to inoculate all the serum bottles (10% v/v). The serum bottles were then sealed with an airtight septum and a metal ring clamp and two needles were inserted through the septum to allow for sampling. The serum bottles were placed on a magnetic stirrer plate at room temperature (since storage tanks are typically kept at room temperature), with stirring at 100 rpm. Samples were taken periodically and analyzed for glucose and lactic acid using HPLC. Experiments were performed in triplicate. The experiments were continued for 11 days.
Experiments in this example were performed according to the description in example 2 with the difference that the sugar-rich hydrolysate contained 10% (v/v) non-detoxified spruce hydrolysate. This was done to simulate sugar-rich hydrolysate with some inhibitory impurities present that may arise from insufficient separation and/or washing.
In the “Experiment A” samples, serum bottles were inoculated with Lactobacillus sp. at time 0 hours and incubated at room temperature for 21 days. Samples were taken periodically and analyzed for glucose and lactic acid (not shown here) using HPLC.
In the “Experiment B” samples, serum bottles were inoculated twice—firstly on the first day and again two weeks later, to simulate a re-infection and test the longevity of the inhibitory effect of sodium sulfite.
In Experiment “C”, the third group of serum bottles were inoculated after two weeks of storage at room temperature and inoculated with Lactobacillus (after 14 days).

[2] = system: lactic acid bacteria; experiment: Bacterial contamination in a sugar-rich hydrolysate (synthetic media), glucose and lactic acid by HPLC; conditions: 5, 10, 20 and 40 mM, room temperature, 11 days, FIG. 3
Text: The aim of this experiment was to test the potential of sodium sulfite to control bacterial contamination in the storage tanks which contain sugar-rich hydrolysate streams before they are used in fermentations. The hydrolysate is representative of a hydrolysate according to the present disclosure.
as §1

[3] = system: Lactobacillus sp.; experiment: Storage of a sugar-rich hydrolysate inoculated with Lactobacillus sp., glucose by HPLC; conditions: 5, 10, 20 and 40 mM, three weeks of incubation
Procedure: as §1
Storage of sugar-rich hydrolysate with addition of 5-40 mM was performed in accordance with the description of example 2. In this example, the samples were prepared and handled as in example 2. In other words, the “Experiment A” samples in this example are identical to those of example 2, and these were used as a reference for the “Experiment B” and “Experiment C” samples, as well as for validating the results of example 2.
The “Experiment B” samples were inoculated with a Lactobacillus sp. at time 0 hours, and again after 336 hours. This was done to test the infection resistance of samples that were exposed to more than one culture of Lactobacillus sp; i.e. samples that were re-infected after two weeks.
The samples in “Experiment C” were stored at ambient room temperature for 2 weeks, after which Lactobacillus was added to the flasks, after 336 hours. Samples were incubated for another 7 days and a total of 21 days as for the other two experiments.

O=S([O-])[O-].[Na+].[Na+] [sodium sulfite]
effect on Lactobacillus sp. growth ([1]; 40 mM, hydrolysate with 10% (v/v) non-detoxified spruce hydrolysate, Experiments A-C): antimicrobial effect
growth relative to sample with no sulfite (detoxification effect) ([1]; 5-20 mM, hydrolysate with 10% (v/v) non-detoxified spruce hydrolysate): grew faster
Glucose ([1]; Experiment A, 5 mM, 0 h): 83.8 g/L
Glucose ([1]; Experiment A, 5 mM, 168 h): 71.9 g/L
Glucose ([1]; Experiment A, 5 mM, 336 h): 66.3 g/L
Glucose ([1]; Experiment A, 5 mM, 508 h): 65.9 g/L
Glucose ([1]; Experiment A, 10 mM, 0 h): 84.8 g/L
Glucose ([1]; Experiment A, 10 mM, 168 h): 72.9 g/L
Glucose ([1]; Experiment A, 10 mM, 336 h): 64.6 g/L
Glucose ([1]; Experiment A, 10 mM, 508 h): 63.8 g/L
Glucose ([1]; Experiment A, 20 mM, 0 h): 83.4 g/L
Glucose ([1]; Experiment A, 20 mM, 168 h): 75.2 g/L
Glucose ([1]; Experiment A, 20 mM, 336 h): 70.1 g/L
Glucose ([1]; Experiment A, 20 mM, 508 h): 67.2 g/L
Glucose ([1]; Experiment A, 40 mM, 0 h): 82.0 g/L
Glucose ([1]; Experiment A, 40 mM, 168 h): 80.1 g/L
Glucose ([1]; Experiment A, 40 mM, 336 h): 77.0 g/L
Glucose ([1]; Experiment A, 40 mM, 508 h): 82.5 g/L
Glucose ([1]; Experiment B, 5 mM, 0 h): 83.8 g/L
Glucose ([1]; Experiment B, 5 mM, 168 h): 72.6 g/L
Glucose ([1]; Experiment B, 5 mM, 336 h): 66.8 g/L
Glucose ([1]; Experiment B, 5 mM, 508 h): 69.0 g/L
Glucose ([1]; Experiment B, 10 mM, 0 h): 81.7 g/L
Glucose ([1]; Experiment B, 10 mM, 168 h): 71.5 g/L
Glucose ([1]; Experiment B, 10 mM, 336 h): 67.9 g/L
Glucose ([1]; Experiment B, 10 mM, 508 h): 73.4 g/L
Glucose ([1]; Experiment B, 20 mM, 0 h): 83.1 g/L
Glucose ([1]; Experiment B, 20 mM, 168 h): 69.0 g/L
Glucose ([1]; Experiment B, 20 mM, 336 h): 72.4 g/L
Glucose ([1]; Experiment B, 20 mM, 508 h): 72.1 g/L
Glucose ([1]; Experiment B, 40 mM, 0 h): 85.2 g/L
Glucose ([1]; Experiment B, 40 mM, 168 h): 86.6 g/L
Glucose ([1]; Experiment B, 40 mM, 336 h): 86.2 g/L
Glucose ([1]; Experiment B, 40 mM, 508 h): 86.3 g/L
Glucose ([1]; Experiment C, 5 mM, 0 h): 85.4 g/L
Glucose ([1]; Experiment C, 5 mM, 168 h): 84.8 g/L
Glucose ([1]; Experiment C, 5 mM, 336 h): 83.4 g/L
Glucose ([1]; Experiment C, 5 mM, 508 h): 77.1 g/L
Glucose ([1]; Experiment C, 10 mM, 0 h): 84.8 g/L
Glucose ([1]; Experiment C, 10 mM, 168 h): 81.7 g/L
Glucose ([1]; Experiment C, 10 mM, 336 h): 81.9 g/L
Glucose ([1]; Experiment C, 10 mM, 508 h): 75.5 g/L
Glucose ([1]; Experiment C, 20 mM, 0 h): 85.9 g/L
Glucose ([1]; Experiment C, 20 mM, 168 h): 82.3 g/L
Glucose ([1]; Experiment C, 20 mM, 336 h): 83.5 g/L
Glucose ([1]; Experiment C, 20 mM, 508 h): 79.5 g/L
Glucose ([1]; Experiment C, 40 mM, 0 h): 80.9 g/L
Glucose ([1]; Experiment C, 40 mM, 168 h): 81.0 g/L
Glucose ([1]; Experiment C, 40 mM, 336 h): 85.6 g/L
Glucose ([1]; Experiment C, 40 mM, 508 h): 82.6 g/L
concentration of lactic acid [2]: 0 g/L
growth of lactic acid bacteria [2]: inhibited the growth
growth of Lactobacillus sp. [3]: inhibited the growth

From patent publication US20220364132A1, “METHOD FOR FORMING A STORAGE STABLE H[…] A LIGNO[…]” (Sekab E- Technology AB, priority 2019, published 2022)
